Converted amounts (≈) assume the structure as drawn.
Conditions: buffer; pH 7.4; 200.0 µM

SMILES | solubility kinetic [µg/mL]
O=C(c1ccc2ccccc2n1)N(CCO)Cc1ccccc1 | 41.4 (≈ 135 µM)
Cc1ccc(S(=O)(=O)N2CCC[C@H]2C(=O)OCc2cc(=O)oc3cc(C)ccc23)cc1 | 7.3 (≈ 16.5 µM)
CSc1ccc(-c2nc(CN(C)C3CCOC3)c(C)o2)cc1 (stereo not given) | 47.1 (≈ 148 µM)
O=C(CCCn1cc([N+](=O)[O-])cn1)NCc1ccccc1 | > 43.2
CCOc1ncccc1C(=O)Nc1nc(SC)ns1 | 7.8 (≈ 26.3 µM)
CCN(C(=O)COc1ncnc2sccc12)c1ccccc1 | 42.5 (≈ 136 µM)
COc1ccc(-n2c(C)nc3sc4c(c3c2=O)CCCC4)cc1 | 6.4 (≈ 19.6 µM)
CCc1nc2ccccc2c(C(=O)Nc2ccc(F)cc2)c1C | < 0.3
Cc1cc(C)cc(NC(=O)CN2CCN(C(=O)c3cccs3)CC2)c1 | > 53.6
O=C(O)CCC(=O)Nc1nc2nccc(-c3ccccc3)n2n1 | > 46.7
NC(=NC(=O)c1ccc(OCC(F)(F)F)nc1)c1ccc(Cl)cc1 | 2 (≈ 5.59 µM)
FC(F)(F)c1ccccc1NC(=S)Nc1ccccc1 | 21.6 (≈ 72.9 µM)
O=C(O)CC1(CC(=O)Nc2cccc(C(=O)O)c2)CCCC1 | > 45.8
Cc1nc(Sc2ccc(Cl)cc2)c(C#N)c(C)c1[N+](=O)[O-] | < 0.2
Cc1ccc(Nc2ccc([N+](=O)[O-])cn2)cc1Cl | < 0.2
Cc1cc(Nc2ccc(C)c(C)c2)c2ccccc2n1 | > 39.4
CCn1c(=O)c2ccccc2n(Cc2cccc([N+](=O)[O-])c2)c1=O | 0.9 (≈ 2.77 µM)
COc1cc2c(cc1OC)CN(C1CCC(C)CC1)CC2 (stereo not given) | 34.7 (≈ 120 µM)
O=S(=O)(Nc1ccc(N2CCCCC2)cc1)c1ccc(F)cc1F | 41.3 (≈ 117 µM)
O=C(NC1=NCCS1)C1CCN(S(=O)(=O)c2cc([N+](=O)[O-])ccc2Cl)CC1 | 20.8 (≈ 48 µM)

SMILES | solubility kinetic [µg/mL]
CCCN1C(=O)CC(Sc2ncccc2C(=O)O)C1=O (stereo not given) | 42.5 (≈ 144 µM)
Cc1ccc(N2CCN(C(=O)Nc3cccc([N+](=O)[O-])c3)CC2C)cc1 (stereo not given) | 22 (≈ 62.1 µM)
O=[N+]([O-])/C(C(=C(Cl)Cl)N1CCOCC1)=C1\NCCO1 | > 46.5
O=C(Cc1cccc2ccccc12)NCCOc1ccccc1F | 3.7 (≈ 11.4 µM)
Cc1nn(CC(=O)N2CCC(C)CC2)c(=O)c2cccn12 | > 43.3
O=C(O)c1nccnc1C(=O)Nc1ccc(Cl)cc1Cl | > 46.8
Cc1ccsc1C(=O)OCC(=O)NC1CCCC1 | > 40.1
NS(=O)(=O)c1ccc(CCNCC(=O)NC2CC2)cc1 | 26.3 (≈ 88.4 µM)
COc1ccc(O)c(/C=C(\C#N)C(=O)Nc2ccccn2)c1 | 22.8 (≈ 77.2 µM)
CC(C)N1C(=O)CCC1C(=O)NCc1ccc(F)cc1Cl (stereo not given) | > 46.9
CCCOC(=O)CC1C(=O)NCCN1Cc1cc(OC)cc(OC)c1 (stereo not given) | > 52.6
CC(=O)N1CCN(Cc2nc3ccc(Cl)cc3n2CCO)CC1 | > 50.5
O=C(c1ccc([N+](=O)[O-])cc1)N1CCN(C(=O)C2CCCCC2)CC1 | > 51.8
CN(C)c1ccc(NC(=O)c2ccc3nc[nH]c3c2)cc1 | > 42
CCc1ccc(N2CC(C(=O)Nc3ccc(F)cc3)CC2=O)cc1 (stereo not given) | 0.8 (≈ 2.45 µM)
O=C(NC1CCCCC1)c1cc(C2CC2)on1 | > 35.1
CC(C(=O)N1CCN(c2ccccc2F)CC1)c1ccc([N+](=O)[O-])cc1 (stereo not given) | 38.8 (≈ 109 µM)
COc1cc(C(=O)NCCNC(=O)C2CCCNC2=O)cc(OC)c1OC (stereo not given) | > 56.9
CNC(=O)Cn1nc(C)c(S(=O)(=O)N2CCOCC2)c1C | > 47.5
CC1=C(C(=O)OCC2CCCCC2)C(c2ccc(O)cc2)NC(=O)N1 (stereo not given) | 3.4 (≈ 9.87 µM)

SMILES | solubility kinetic [µg/mL]
Clc1ccc(CNc2ccc(N3CCN(Cc4ccccc4)CC3)cc2)cc1 | 1 (≈ 2.55 µM)
Cc1cc(F)ccc1NC(=S)NC1CCCC1 | 37.2 (≈ 147 µM)
O=S1(=O)CCN(Cc2cccc(C(F)(F)F)c2)CC1 | 41.9 (≈ 143 µM)
COc1ccc(C(=O)NC2=NCCS2)cc1 | > 35.4
CSc1nsc(SCC(=O)Nc2ccccc2)n1 | 32.4 (≈ 109 µM)
CC(=O)c1ccc(S(=O)(=O)N2CCN(C(C)C(=O)N(C)Cc3ccccc3)CC2)cc1 (stereo not given) | 44 (≈ 99.2 µM)
CCOc1cccc2cc(C(=O)NCc3ccc(C)cc3)c(=N)oc12 | 2.4 (≈ 7.13 µM)
N/C(=N\OC(=O)COc1ccc2ccccc2c1)c1ccncc1 | 6.2 (≈ 19.3 µM)
O=C(O)c1cccc(-n2c(/C=C/c3ccccc3)nc3ccccc3c2=O)c1 | > 55.3
Cc1ccc(OCC(=O)OCC(=O)NC2CCCC2)cc1C | 20 (≈ 65.5 µM)
COC(=O)Cc1nc(Nc2ccccc2)sc1C | 34.3 (≈ 131 µM)
COc1ccc(-c2nc3ncccc3n2O)cc1 | > 36.2
Cc1[nH]c2ccc(C(=O)NCCN3CCOCC3)cc2c1C | > 45.2
COC(=O)Cc1ccc(NC(=S)N2CCCCC2C)cc1 (stereo not given) | > 46
Cc1cccc(C(=O)OCC(=O)NCCCc2ccccc2)c1O | 12.3 (≈ 37.6 µM)
Cc1ccccc1CSCC(=O)Nc1ccccc1Br | 4.5 (≈ 12.8 µM)
CN(Cc1ccccc1)C(=O)c1cccnc1 | > 33.9
Cc1cc(NC(=O)c2ccc([N+](=O)[O-])cc2)n(C)n1 | > 39
COc1ccc(Br)cc1CN(C)CC(=O)Nc1cccc(S(=O)(=O)N2CCCC2)c1.O=C(O)C(=O)O | 12.9
N#Cc1sc(C(N)=O)c(-c2ccccc2)c1-c1ccccc1 | < 0.3
